Laboratory results from the NIST ThermoML archive (doi:10.1016/j.fluid.2013.11.008).
Numbers after ± are expanded uncertainties.

Columns and labels:
[1] = for mass density: 298.15 K, 101.33 kPa, Liquid, Pycnometric method
[2] = Molar enthalpy of transition or fusion; settings: Crystal; DSC

mass density [1]	SMILES	Normal melting temperature ([1]; Crystal, DTA)	Molar enthalpy of transition or fusion [2]
785.9 ± 40 kg/m3	CO [methanol]		
782.7 ± 40 kg/m3	CC(C)O [propan-2-ol]		

Second part, the molecule before the results:

SMILES	mass density [1]	Normal melting temperature ([1]; Crystal, DTA)	Molar enthalpy of transition or fusion [2]
C[C@]12CCC(=O)C=C1CC[C@@H]1[C@@H]2CC[C@]2(C)C(=O)CC[C@@H]12 [androst-4-ene-3,17-dione]		171.39 ± 0.7 °C	25.7 ± 1.6 kJ/mol
CCCCO [butan-1-ol]	805.5 ± 40 kg/m3		
CCO [ethanol]	786.4 ± 40 kg/m3		
